Key:
duck salad = assay: Test B flood test duck salad; type: in vivo, Heteranthera limosa
Method in brief: (§1)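 Read-out is a visual response score from 0 (no effect) to 10 (complete control), assigned by comparison with untreated controls. Treatment was applied at the 2-leaf stage, and plants stayed in the greenhouse for twelve to sixteen days before scoring.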

sugar beet = assay: Test B pre/postemergence sugar beet; type: in vivo, Beta vulgaris
Method in brief: (§2)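 Response is a visual 0-to-10 score relative to untreated plants, where 0 means no effect and 10 means complete control, taken twelve to sixteen days after application. Treatments went onto soil at planting and onto foliage of 1- to 4-leaf plants, using a surfactant-containing non-phytotoxic solvent.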

bedstraw = assay: Test B pre/postemergence bedstraw; type: in vivo, Galium aparine; details: Preemergence
Method in brief: as §2

rice = assay: Test B flood test rice; type: in vivo, Oryza sativa
Method in brief: as §1

blackgrass = assay: Test B pre/postemergence blackgrass; type: in vivo, Alopecurus myosuroides
Method in brief: as §2

rape = assay: Test B pre/postemergence rape; type: in vivo, Brassica napus
Method in brief: as §2

cocklebur = assay: Test B pre/postemergence cocklebur; type: in vivo, Xanthium strumarium
Method in brief: as §2

wild oat = assay: Test B pre/postemergence wild oat; type: in vivo, Avena fatua
Method in brief: as §2

corn = assay: Test B pre/postemergence corn; type: in vivo, Zea mays
Method in brief: as §2

giant foxtail = assay: Test B pre/postemergence giant foxtail; type: in vivo, Setaria faberii
Method in brief: as §2

velvetleaf = assay: Test B pre/postemergence velvetleaf; type: in vivo, Abutilon theophrasti
Method in brief: as §2

pigweed = assay: Test B pre/postemergence pigweed; type: in vivo, Amaranthus retroflexus
Method in brief: as §2

bamyardgrass = assay: Test B flood test barnyardgrass; type: in vivo, Echinochloa crus-galli
Method in brief: as §1

crabgrass = assay: Test B pre/postemergence crabgrass; type: in vivo, Digitaria sanguinalis
Method in brief: as §2

soybean = assay: Test B pre/postemergence soybean; type: in vivo, Glycine max
Method in brief: as §2

morningglory = assay: Test B pre/postemergence morningglory; type: in vivo, Ipomoea hederacea
Method in brief: as §2

wheat = assay: Test B pre/postemergence wheat; type: in vivo, Triticum aestivum
Method in brief: as §2

purple nutsedge = assay: Test B pre/postemergence purple nutsedge; type: in vivo, Cyperus rotundus
Method in brief: as §2

surinam grass = assay: Test B pre/postemergence surinam grass; type: in vivo, Brachiaria decumbens
Method in brief: as §2

smallflower flatsedge = assay: Test B flood test smallflower flatsedge; type: in vivo, Cyperus difformis
Method in brief: as §1

[1] = Rate 62 g/ha, flood test species, Pre-emergence, visual evaluation after twelve to sixteen days
[2] = Rate 125 g/ha, under heading Pre-emergence, flood test species, visual evaluation after twelve to sixteen days
[3] = Rate 250 g/ha, Pre-emergence (flood test species), scale 0 to 10, 0 is no effect, 10 is complete control
[4] = Rate 500 g/ha, Pre-emergence section of Table B, 0 to 10 scale (0 no effect, 10 complete control)
[5] = Postemergence, Rate 125 g/ha, scale of 0 to 10 where 0 is no effect and 10 is complete control
[6] = Postemergence, Rate 250 g/ha, scale of 0 to 10, 0 is no effect, 10 is complete control
[7] = Postemergence, Rate 500 g/ha, scale of 0 to 10 where 0 is no effect and 10 is complete control
[8] = Preemergence, Rate 62 g/ha, scale 0 to 10 (0 no effect, 10 complete control)
[9] = Preemergence, Rate 125 g/ha, scale of 0 to 10 where 0 is no effect and 10 is complete control
[10] = Preemergence, Rate 500 g/ha, scale of 0 to 10 where 0 is no effect and 10 is complete control
[11] = Postemergence, Rate 62 g/ha, scale of 0 to 10, 0 is no effect, 10 is complete control

## CC(C)N(C(=O)n1oc(=O)n(C(C)CBr)c1=O)c1ccc(F)cc1F (stereo not drawn) [Compound 594]
Duck salad; [1]
  Plant response rating, Ducksalad (0 to 10 scale, 0 is no effect, 10 is complete control): 0
Duck salad; [2]
  Ducksalad plant response rating (0 to 10 scale, 0 is no effect, 10 is complete control): 0
Duck salad; [3]
  Ducksalad plant response rating: 0
Duck salad; [4]
  Ducksalad plant response rating: 0
Sugar beet; [5]
  Plant response rating, Sugarbeets: 5
Sugar beet; [6]
  Sugarbeets plant response rating: 5
Sugar beet; [7]
  Plant response rating, Sugarbeets: 5
Sugar beet; [8]
  Sugarbeets plant response rating: 0
Sugar beet; [9]
  Sugarbeets plant response rating: 0
Sugar beet; [10]
  Plant response rating, Sugarbeets: 8
bedstraw; Rate 62 g/ha, scale 0 to 10 (0 no effect, 10 complete control)
  Bedstraw plant response rating: 0
bedstraw; Rate 125 g/ha, scale of 0 to 10 where 0 is no effect and 10 is complete control
  Bedstraw plant response rating: 0
bedstraw; Rate 250 g/ha
  Bedstraw plant response rating (0 to 10 scale): 2
bedstraw; Rate 500 g/ha, scale of 0 to 10 where 0 is no effect and 10 is complete control
  Bedstraw plant response rating: 9
rice; [1]
  Plant response rating, Rice (0 to 10 scale, 0 is no effect, 10 is complete control): 0
rice; [2]
  Rice plant response rating (0 to 10 scale, 0 is no effect, 10 is complete control): 0
rice; [3]
  Rice plant response rating: 0
rice; [4]
  Rice plant response rating: 0
blackgrass; [5]
  Plant response rating, Blackgrass: 5
blackgrass; [6]
  Blackgrass plant response rating: 5
blackgrass; [7]
  Plant response rating, Blackgrass: 5
blackgrass; [8]
  Blackgrass plant response rating: 5
blackgrass; [9]
  Blackgrass plant response rating: 5
blackgrass; Preemergence, Rate 250 g/ha
  Blackgrass plant response rating (0 to 10 scale): 9
blackgrass; [10]
  Blackgrass plant response rating: 9
rape; [11]
  Rape plant response rating: 0
rape; [5]
  Plant response rating, Rape: 0
rape; [6]
  Rape plant response rating: 0
rape; [7]
  Plant response rating, Rape: 0
rape; [8]
  Rape plant response rating: 0
rape; [9]
  Rape plant response rating: 0
rape; [10]
  Plant response rating, Rape: 9
cocklebur; [11]
  Cocklebur plant response rating: 0
cocklebur; [5]
  Plant response rating, Cocklebur: 0
cocklebur; [6]
  Cocklebur plant response rating: 3
cocklebur; [7]
  Plant response rating, Cocklebur: 4
cocklebur; [9]
  Cocklebur plant response rating: 0
cocklebur; Preemergence, Rate 250 g/ha
  Cocklebur plant response rating (0 to 10 scale): 0
cocklebur; [10]
  Plant response rating, Cocklebur: 2
Wild oat; [5]
  Plant response rating, Wild oats: 0
Wild oat; [6]
  Wild oats plant response rating: 0
Wild oat; [7]
  Plant response rating, Wild oats: 0
Wild oat; [8]
  Wild oats plant response rating: 0
Wild oat; [9]
  Wild oats plant response rating: 0
Wild oat; [10]
  Plant response rating, Wild oats: 5
corn; [11]
  Corn plant response rating: 0
corn; [5]
  Plant response rating, Corn: 0
corn; [6]
  Corn plant response rating: 0
corn; [7]
  Plant response rating, Corn: 0
corn; [8]
  Corn plant response rating: 0
corn; [9]
  Corn plant response rating: 0
corn; Preemergence, Rate 250 g/ha
  Corn plant response rating (0 to 10 scale): 2
corn; [10]
  Plant response rating, Corn: 4
Giant foxtail; [11]
  Giant foxtail plant response rating: 6
Giant foxtail; [5]
  Plant response rating, Giant foxtail: 7
Giant foxtail; [6]
  Giant foxtail plant response rating: 7
Giant foxtail; [7]
  Plant response rating, Giant foxtail: 9
Giant foxtail; [8]
  Giant foxtail plant response rating: 9
Giant foxtail; [9]
  Giant foxtail plant response rating: 9
Giant foxtail; [10]
  Plant response rating, Giant foxtail: 10
velvetleaf; [5]
  Plant response rating, Velvetleaf: 3
velvetleaf; [6]
  Velvetleaf plant response rating: 3
velvetleaf; [7]
  Plant response rating, Velvetleaf: 5
velvetleaf; [8]
  Velvetleaf plant response rating: 2
velvetleaf; [9]
  Velvetleaf plant response rating: 4
velvetleaf; [10]
  Plant response rating, Velvetleaf: 7
pigweed; [5]
  Plant response rating, Redroot pigweed: 0
pigweed; [6]
  Redroot pigweed plant response rating: 3
pigweed; [7]
  Plant response rating, Redroot pigweed: 4
pigweed; [8]
  Redroot pigweed plant response rating: 0
pigweed; [9]
  Redroot pigweed plant response rating: 0
pigweed; [10]
  Plant response rating, Redroot pigweed: 10
bamyardgrass; [1]
  Plant response rating, Barnyardgrass (0 to 10 scale, 0 is no effect, 10 is complete control): 0
bamyardgrass; [2]
  Barnyardgrass plant response rating (0 to 10 scale, 0 is no effect, 10 is complete control): 0
bamyardgrass; [3]
  Barnyardgrass plant response rating: 0
bamyardgrass; [4]
  Barnyardgrass plant response rating: 0
crabgrass; [11]
  Crabgrass plant response rating: 5
crabgrass; [5]
  Plant response rating, Crabgrass: 7
crabgrass; [6]
  Crabgrass plant response rating: 9
crabgrass; [7]
  Plant response rating, Crabgrass: 9
crabgrass; [8]
  Crabgrass plant response rating: 9
crabgrass; [9]
  Crabgrass plant response rating: 9
crabgrass; [10]
  Plant response rating, Crabgrass: 9
soybean; [5]
  Plant response rating, Soybean: 0
soybean; [7]
  Plant response rating, Soybean: 4
soybean; [8]
  Soybean plant response rating: 0
soybean; [9]
  Soybean plant response rating: 0
soybean; [10]
  Plant response rating, Soybean: 4
morningglory; [11]
  Morningglory plant response rating: 0
morningglory; [5]
  Plant response rating, Morningglory: 2
morningglory; [6]
  Morningglory plant response rating: 2
morningglory; [7]
  Plant response rating, Morningglory: 7
morningglory; [8]
  Morningglory plant response rating: 0
morningglory; [9]
  Morningglory plant response rating: 0
morningglory; [10]
  Plant response rating, Morningglory: 6
wheat; [5]
  Plant response rating, Wheat: 0
wheat; [6]
  Wheat plant response rating: 0
wheat; [7]
  Plant response rating, Wheat: 0
wheat; [8]
  Wheat plant response rating: 0
wheat; [9]
  Wheat plant response rating: 0
wheat; [10]
  Plant response rating, Wheat: 2
Purple nutsedge; [11]
  Nutsedge plant response rating: 0
Purple nutsedge; [5]
  Plant response rating, Nutsedge: 0
Purple nutsedge; [6]
  Nutsedge plant response rating: 3
Purple nutsedge; [7]
  Plant response rating, Nutsedge: 3
Purple nutsedge; [8]
  Nutsedge plant response rating: 0
Purple nutsedge; [9]
  Nutsedge plant response rating: 0
Purple nutsedge; [10]
  Plant response rating, Nutsedge: 6
Surinam grass; [11]
  B. signalgrass plant response rating: 0
Surinam grass; [5]
  Plant response rating, B. signalgrass: 0
Surinam grass; [6]
  B. signalgrass plant response rating: 2
Surinam grass; [7]
  Plant response rating, B. signalgrass: 3
Surinam grass; [8]
  B. signalgrass plant response rating: 3
Surinam grass; [9]
  B. signalgrass plant response rating: 3
Surinam grass; Preemergence, Rate 250 g/ha
  B. signalgrass plant response rating (0 to 10 scale, 0 is no effect, 10 is complete control): 5
Surinam grass; [10]
  B. signalgrass plant response rating: 7
Smallflower flatsedge; [1]
  Plant response rating, S. Flatsedge (0 to 10 scale, 0 is no effect, 10 is complete control): 0
Smallflower flatsedge; [2]
  S. Flatsedge plant response rating (0 to 10 scale, 0 is no effect, 10 is complete control): 0
Smallflower flatsedge; [3]
  S. Flatsedge plant response rating: 0
Smallflower flatsedge; [4]
  S. Flatsedge plant response rating: 0
